Reference: patent US8859018B2, “Delivery carrier for antimicrobial essential oils” (Nestec S.A., priority 2010, dated 2014)

How the values were obtained:
Test in all cases: Challenge test in fresh and aged oyster sauce (Example 3)
Format in all cases: cell-based
Settings in all cases: oyster sauce aged 0 to 6 months; KS 0.10 wt %, garlic EO 0.12 wt %; one week to at least 4 weeks after start
Aspergillus niger = test system: Aspergillus niger
Protocol: (§1) Fresh oyster sauce (OS) tested was the commercial MAGGI Oyster Sauce product from Singapore. The OS was first pasteurized according to standard procedures. After cooling, the samples were divided into 3 groups: A) a negative control group where just 5% of sterilized water was added; B) a positive control group where potassium sorbate (KS) was added to a final concentration of 0.10 wt %; and group C) where a garlic EO acacia gum emulsion (1:1 wt ratio) was added to a final concentration of the EO of 0.12 wt %. Potassium sorbate (E number 202) is widely used as a food preservative and serves here as a positive control. Garlic EO is from Synthite Industries. It was emulsified with acacia gum in the same way as the oregano EO in Example 1.
(§2) The three OS samples were stored (i.e. aged) at 30° C. and ca. 65% relative humidity.
(§3) Microbiological challenge tests were performed directly after preparation of the OS samples, labelled as 0 month, and then after 3 and 6 months of storage, respectively. The challenge tests were performed in the same way as described in Example 1. However, instead of using Saccharomyces cerevisiae as spoilage culture, individual cultures of Aspergillus niger, Penicillium nalgiovense and Eurotium amstelodami were used.

Eurotium amstelodami = test system: Eurotium amstelodami
Protocol: as §1, §2, §3

Penicillium nalgiovense = test system: Penicillium nalgiovense
Protocol: as §1, §2, §3

Measured: growth of the mould strain

C/C=C/C=C/C(=O)[O-].[K+] [KS, potassium sorbate]
no detectable growth: all assays above
